Reference: paper PMC6805555, “Characterization of resistance to a potent D-peptide HIV entry inhibitor” (Retrovirology, 2019)

How the values were obtained:
[1] = tested on: IZN36 Q577R (gp41 N-peptide mimic); format: binding, HIV-1 (HXB2 strain); conditions: Q577R vs. WT IZN36
Description: A Q577R mutant version was generated via site-directed mutagenesis using the QuikChange® protocol (Stratagene). […] The cysteine residues of these constructs were biotinylated for SPR.
Protein interaction analysis was carried out on a Biacore 3000 (GE Healthcare). Analyses were performed in triplicate at 25 °C in sterile-filtered and degassed Gibco® PBS pH 7.4 (Invitrogen) supplemented with 0.005% P20 and 1 mg/mL BSA at a flow rate of 50 μL/min. First, streptavidin (Pierce) was immobilized on CM5 chips (GE Healthcare) using the Amine Coupling Kit (GE Healthcare) following a standard coupling protocol [36]. […] Injections were performed for 1 min using KINJECT. Dissociation was monitored for 2 min, followed by a 20 μL injection (QUICKINJECT) of running buffer followed by EXTRACLEAN. Sensorgrams were processed using Scrubber2 (BioLogic Software), and data were analyzed with Prism 5.0 (GraphPad Software). The equilibrium binding data were fit using the built-in saturation binding model (one site—specific binding), normalized to Bmax, and replotted as concentration of analyte vs. % capacity.

[2] = tested on: HIV-1 HXB2 Env Q577R pseudotyped HIV-1; format: cell-based; conditions: for C-peptide inhibition of Q577R compared to WT pseudoviruses: in words
Description: (§1) Supplementary file 12977_2019_489_MOESM3_ESM.pdf: Additional file 3. Effect of Q577R on C-peptide Inhibitors. Single-cycle viral infectivity assays in which HIV-1 HXB2 Env (WT and Q577R) pseudotyped HIV-1 with a luciferase reporter was used to infect HOS-LES cells in the absence or presence of six fivefold dilutions of the indicated C-peptide (in quadruplicate). The data are the average of two experiments with the standard deviation in parentheses.

[3] = tested on: enfuvirtide resistance mutations in HIV-1; conditions: next-generation L-peptide fusion inhibitors; cited from earlier work
Description: The remarkable conservation of this gp41 hydrophobic pocket target is indicative of its critical roles in the viral life cycle and impedes the ability of the virus to combat inhibitors that target it. The region of the HIV-1 genome encoding the pocket is conserved at both the protein level (for the role of gp41 in membrane fusion during viral entry) and nucleotide level (due to a structured RNA region in the critical Rev-response element). The only FDA-approved HIV fusion inhibitor, enfuvirtide (Fuzeon), is an L-peptide derived from the gp41 C-peptide region that targets the gp41 N-trime ...

[4] = tested on: HIV-1 HXB2 Env WT pseudotyped HIV-1; format: cell-based; conditions: HXB2 Env WT pseudotyped HIV-1, luciferase reporter, HOS-LES cells, six fivefold dilutions in quadruplicate; average of two experiments (SD)
Description: as §1

HIV-1 strain NL4-3 = conditions: similar passaging studies; cited from earlier work
Description: This extremely high affinity for the transiently exposed gp41 trimer provides a reserve of binding energy (resistance capacitor) to prevent the viral resistance pathway of stepwise accumulation of modest affinity-disrupting mutations. Such modest mutations would not affect PIE12-trimer potency and therefore not confer a selective advantage. Viral pa ... || We previously reported the selection of HIV-1 populations resistant to PIE12-trimer by passaging the lab-adapted NL4-3 strain in the presence of escalating suboptimal (partially inhibiting) concentrations of inhibitor, starting with 1 nM. Ultimately, PIE12-trimer resistant virus propagating in 320 nM PIE12-trimer was obtained after 65 weeks of passaging. Duplicate selections yielded two highly resistant polyclonal viral pools (W1 and W2). As previously reported, similar passaging studies with enfuvirtide led to high-level resistance (> 1000-fold) within ~ 3 weeks. […] We therefore investigated the growth kinetics of the NL4-3-based replication competent Q577 point mutants and the polyclonal viral pools (W1 and W2) and compared them to that of the native virus (clonal NL4-3, WT).

Q577R HIV-1 = conditions: other studied HIV-1 strains; cited from earlier work
Description: (§2) Q577R has also been identified in viral resistance screens against other HIV-1 entry inhibitors that target the prehairpin intermediate. Against N-trimer peptides N44, N36, and IZN36, the C-peptide T2635, and the retrocyclin RC-101, Q577R is found in some or all of the resistant viruses and always accompanied by other gp41 mutation(s). By itself, Q577R provided only modest resistance to the N-trimer and C-peptide inhibitors (< threefold). Viral escape from a recently identified adnectin, 6200_A08, which similarly targets the gp41 hydrophobic pocket, ...

[5] = tested on: Q577R in patient pre-treatment env; conditions: patient's pre-treatment env; cited from earlier work
Description: as §2

HIV-1 = conditions: in vitro and in vivo; cited from earlier work
Description: The remarkable conservation of this gp41 hydrophobic pocket target is indicative of its critical roles in the viral life cycle and impedes the ability of the virus to combat inhibitors that target it. The region of the HIV-1 genome encoding the pocket is conserved at both the protein level (for the role of gp41 in membrane fusion during viral entry) and nucleotide level (due to a structured RNA region in the critical Rev-response element). The only FDA-approved HIV fusion inhibitor, enfuvirtide (Fuzeon), is an L-peptide derived from the gp41 C-peptide region that targets the gp41 N-trime ... || Q577R has also been identified in viral resistance screens against other HIV-1 entry inhibitors that target the prehairpin intermediate. Against N-trimer peptides N44, N36, and IZN36, the C-peptide T2635, and the retrocyclin RC-101, Q577R is found in some or all of the resistant viruses and always accompanied by other gp41 mutation(s). By itself, Q577R provided only modest resistance to the N-trimer and C-peptide inhibitors (< threefold). Viral escape from a recently identified adnectin, 6200_A08, which similarly targets the gp41 hydrophobic pocket, ...

Compound	weakening of the interaction [1]	weakening of the interaction (binding energy) [1]	Fold Difference ([2]; IC50 Q577R vs. WT)	C-peptide inhibition of Q577R compared to WT pseudoviruses [2]	impact of enfuvirtide resistance mutations [3]	IC50 ([2]; HXB2 Env Q577R pseudotyped HIV-1, luciferase reporter, HOS-LES cells, six fivefold dilutions in quadruplicate, average of two experiments (SD))	IC50 [4]	level of resistance on passaging (HIV-1 strain NL4-3)	time to high-level resistance (HIV-1 strain NL4-3)	effect of Q577R on sensitivity (Q577R HIV-1)	resistance provided by Q577R [5]	emergence of gp41 resistance mutations (HIV-1)
CC(=O)N[C@H](Cc1c[nH]cn1)C(=O)N1CCC[C@@H]1C(=O)N[C@@H]1CSSC[C@H](C(=O)N[C@H](CCC(=O)O)C(=O)N[C@H](CC(C)C)C(=O)NCC(=O)N[C@H](CCCCN)C(N)=O)NC(=O)[C@@H](CC(C)C)NC(=O)[C@@H](Cc2c[nH]c3ccccc23)NC(=O)[C@@H](CCC(N)=O)NC(=O)[C@@H](Cc2c[nH]c3ccccc23)NC(=O)[C@@H](CCC(=O)O)NC(=O)[C@H]2CCCN2C(=O)[C@@H](Cc2ccc(O)cc2)NC(=O)[C@@H](CC(=O)O)NC1=O [PIE12]	~ 65 fold	2.5 kcal/mol	–	–	–	–	–	–	–	–	–	–
CC[C@H](C)[C@H](NC(=O)[C@H](CCC(N)=O)NC(=O)[C@H](C)NC(=O)[C@H](CCC(N)=O)NC(=O)[C@H](CCC(=O)O)NC(=O)[C@H](CC(C)C)NC(=O)[C@H](CC(C)C)NC(=O)[C@H](C)NC(=O)[C@@H](NC(=O)[C@@H](NC(=O)[C@H](CCCCN)NC(=O)[C@H](CCC(N)=O)NC(=O)[C@H](CCC(=O)O)NC(=O)[C@H](Cc1c[nH]c2ccccc12)NC(=O)[C@H](CCC(=O)O)NC(=O)[C@H](CCC(N)=O)NC(=O)[C@H](Cc1c[nH]c2ccccc12)NC(C)=O)[C@@H](C)CC)[C@@H](C)O)C(=O)N[C@@H](CCC(N)=O)C(=O)N[C@@H](CCC(N)=O)C(=O)N[C@@H](CCC(=O)O)C(=O)N[C@@H](CCCCN)C(=O)N[C@@H](CC(N)=O)C(=O)N[C@@H](CCC(=O)O)C(=O)N[C@@H](Cc1ccc(O)cc1)C(=O)N[C@@H](CCC(=O)O)C(=O)N[C@@H](CC(C)C)C(=O)N[C@@H](CCC(N)=O)C(=O)N[C@@H](CCCCN)C(=O)N[C@@H](CC(C)C)C(=O)N[C@@H](CC(=O)O)C(=O)N[C@@H](CCCCN)C(=O)N[C@@H](Cc1c[nH]c2ccccc12)C(=O)N[C@@H](C)C(=O)N[C@@H](CO)C(=O)N[C@@H](CC(C)C)C(=O)N[C@@H](Cc1c[nH]c2ccccc12)C(=O)N[C@@H](CCC(=O)O)C(=O)N[C@@H](Cc1c[nH]c2ccccc12)C(=O)N[C@@H](Cc1ccccc1)C(N)=O [T1249]	–	–	1.2	only modest differences	much less impacted by enfuvirtide resistance mutations	–	–	–	–	–	–	–
enfuvirtide	–	–	–	only modest differences	–	5.33 nM	1.62 nM	> 1000 fold	~ 3 weeks	minimally affected by Q577R	25 fold	rapid emergence of gp41 resistance mutations
